Reference: ChEMBL document CHEMBL5346925, “3,4-Dihydrobenzo[e][1,2,3]oxathiazine 2,2-dioxide analogs act as potential AMPA receptor potentiators with antidepressant activity” (Eur J Med Chem, 2023)
The source made the active and inactive calls. The calls are words filed in the database; no cut-off is given here.

Columns and labels:
[1] = Drug concentration in Sprague-Dawley rat brain at 1 mg/kg, po measured after 8 hrs by LC-MS/MS analysis; format: ADME, organism-based; details: read-out: Ct
[2] = Drug concentration in Sprague-Dawley rat brain at 1 mg/kg, po measured after 0.50 hr by LC-MS/MS analysis; format: ADME, organism-based; details: read-out: Ct
[3] = Drug concentration in Sprague-Dawley rat brain at 1 mg/kg, po measured after 24 hrs by LC-MS/MS analysis; format: ADME, organism-based; details: read-out: Ct
[4] = Ratio of drug concentration in brain to plasma in Sprague-Dawley rat at 1 mg/kg, po measured after 0.25 hrs by LC-MS/MS analysis; format: ADME, organism-based; details: read-out: BPR
[5] = Drug concentration in Sprague-Dawley rat plasma at 1 mg/kg, po measured after 4 hr by LC-MS/MS analysis; format: ADME, organism-based
[6] = AUC (0 to infinity) in Sprague-Dawley rat at 0.1 mg/kg, iv by LC-MS/MS analysis; format: ADME, organism-based; design: dose 0.1 mg/kg, route iv; details: in vivo
[7] = target: Glutamate receptor ionotropic, AMPA (Rattus norvegicus) (UniProt P19491+P19492+P19493+P19490); assay: Agonist activity at AMPA receptor in rat Primary neuron cells assessed as increase in fluorescence level at 1 uM incubated for 1 hr by calcium 2+ influx assay relative to s-AMPA coupled TAK-137; format: cell-based
[8] = Toxicity in mouse assessed as histopathological changes in kidney at 0.2 to 0.4 mg/kg, ip administered once daily for 2 weeks and measured after 15 days by H and E staining based analysis; format: organism-based; details: in vivo, 360 h, dose 0.2-0.4 mg/kg, time 15 day
[9] = Drug concentration in Sprague-Dawley rat brain at 1 mg/kg, po measured after 2 hrs by LC-MS/MS analysis; format: ADME, organism-based; details: read-out: Ct
Mus musculus = assay: Antidepressant activity in chronic restraint induced depressive mouse assessed as rescue in immobility time at 0.03 to 0.05 mg/kg administered for 1 day after 14th day by forced swimming test; format: functional, organism-based; details: dose 0.03-0.05 mg/kg
[10] = Drug concentration in Sprague-Dawley rat plasma at 1 mg/kg, po measured after 2 hr by LC-MS/MS analysis; format: ADME, organism-based

`O=S1(=O)NCc2cccc(-c3ccc(-c4ccccc4F)cc3)c2O1` gave a concentration at 8 h [1] of 37.2 ng/g, a concentration at 0.5 h [2] of 150 ng/g and a concentration at 24 h [3] of 6.05 ng/g. It also gave a Kp at 0.25 h [4] of 0.59, a concentration at 4 h [5] of 79.3 ng/mL and an AUC(0-inf) [6] of 129 ng·h/mL. For the same compound, the Activity [7] was -2.6%, the Activity [8] was “Non-Toxic” and the concentration at 2 h [9] was 133 ng/g. For the same compound, the Activity (Mus musculus) was “Active” and the concentration at 2 h [10] was 62.3 ng/mL.
